Laboratory results: article PMC8373216, “Development and Preclinical Evaluation of New Inhaled Lipoglycopeptides for the Treatment of Persistent Pulmonary Methicillin-Resistant Staphylococcus aureus Infections” (Antimicrobial Agents and Chemotherapy, 2021)
In brackets after ≈: the same amount, converted by molar mass. Like-named read-outs stand apart in the source and are kept apart here.

Assays:
S. aureus = assay: Expanded panel broth microdilution MIC/MBC; conditions: for MIC: Staphylococcus aureus
[1] = system: Streptococcus constellatus; assay: Expanded panel broth microdilution MIC; assay type: cell-based
[2] = system: Peptostreptococcus anaerobius; assay: Expanded panel broth microdilution MIC; assay type: cell-based
[3] = system: Streptococcus dysgalactiae; assay: Expanded panel broth microdilution MIC/MBC; assay type: cell-based; conditions: for MIC: Streptococcus dysgalactiae
Streptococcus anginosus = assay: Expanded panel broth microdilution MIC/MBC; assay type: cell-based; conditions: for MIC: Streptococcus anginosus, read-out: MIC
Cutibacterium acnes = assay: Expanded panel broth microdilution MIC; assay type: cell-based
[4] = system: MRSA ATCC BAA 1556 (USA300) biofilm; assay: Static MRSA biofilm killing, plastic microtiter plate, MEM
[5] = system: MRSA ATCC BAA 1556 (USA300); assay: In-house broth microdilution MIC screening; assay type: cell-based, Staphylococcus aureus
Streptococcus oralis = assay: Expanded panel broth microdilution MIC; assay type: cell-based
Enterococcus faecium = assay: Expanded panel broth microdilution MIC/MBC; assay type: cell-based; conditions: for MIC: Enterococcus faecium, read-out: MIC
Clostridium. perfringens = assay: microbe, parasite or virus in culture; assay type: cell-based
Streptococcus agalactiae = assay: Expanded panel broth microdilution MIC/MBC; assay type: cell-based; conditions: for MIC: Streptococcus agalactiae
[6] = system: Staphylococcus epidermidis; assay: Expanded panel broth microdilution MIC/MBC; assay type: cell-based; conditions: for MIC: Staphylococcus epidermidis
[7] = MRSA and MSSA isolates of Table 1

Compound: CCCCCCCCCCNC(=O)CNC1(C)CC(OC2C(Oc3c4cc5cc3Oc3ccc(cc3Cl)C(O)C3NC(=O)C(NC(=O)C5NC(=O)C(CC(N)=O)NC(=O)C(NC(=O)C(CC(C)C)NC)C(O)c5ccc(c(Cl)c5)O4)c4ccc(O)c(c4)-c4c(O)cc(O)cc4C(C(=O)O)NC3=O)OC(CO)C(O)C2O)OC(C)C1O (stereo not shown) [RV94]
- MIC:MBC (S. aureus; S. aureus MRSA, MBC median of n = 5): 1
- MIC:MBC (S. aureus; S. aureus MSSA, MBC on one organism): 8
- MIC:MBC (S. aureus; S. aureus VISA, MBC median of n = 2): 2
- MIC:MBC (S. aureus; S. aureus hVISA, MBC on one organism): 8
- MIC (S. aureus; ATCC13709 / MSSA, S. aureus ATCC 13709, MSSA): 0.03 µg/mL (≈ 18.2 nM)
- MIC (S. aureus; ATCC29213 / MSSA, S. aureus ATCC 29213, MSSA): 0.015 µg/mL (≈ 9.11 nM)
- MIC (S. aureus; ATCC43300 / MRSA, S. aureus ATCC 43300, MRSA): 0.015 µg/mL (≈ 9.11 nM)
- MIC (S. aureus; ATCCBAA1556|MRSA|USA300, S. aureus ATCC BAA-1556, MRSA, USA300 (expanded panel)): 0.03 µg/mL (≈ 18.2 nM)
- MIC (S. aureus; ATCCBAA1756|MRSA|NRS384|USA300, S. aureus NRS 384, ATCC BAA-1756, MRSA, USA300): 0.015 µg/mL (≈ 9.11 nM)
- MIC (S. aureus; MRSA / NRS123 / USA400, S. aureus NRS123, MRSA, USA400): 0.015 µg/mL (≈ 9.11 nM)
- MIC (S. aureus; MRSA / NRS725 / USA300, S. aureus NRS725, MRSA, USA300): 0.015 µg/mL (≈ 9.11 nM)
- MIC (S. aureus; MRSA / USA300, S. aureus MMX 3982, MRSA, USA300): 0.015 µg/mL (≈ 9.11 nM)
- MIC (S. aureus; MRSA, S. aureus MMX 7899, MRSA): 0.015 µg/mL (≈ 9.11 nM)
- MIC (S. aureus; MRSA, S. aureus MMX 7900, MRSA): 0.015 µg/mL (≈ 9.11 nM)
- MIC (S. aureus; MRSA, S. aureus MMX 7901, MRSA): 0.015 µg/mL (≈ 9.11 nM)
- MIC (S. aureus; MRSA, S. aureus MMX 7902, MRSA): 0.03 µg/mL (≈ 18.2 nM)
- MIC (S. aureus; MRSA, S. aureus MMX 7903, MRSA): 0.015 µg/mL (≈ 9.11 nM)
- MIC (S. aureus; MRSA, read-out: MIC (median), S. aureus MRSA, 12 isolates): 0.015 µg/mL (≈ 9.11 nM)
- MIC (S. aureus; MSSA, S. aureus MMX 7907, MSSA): 0.03 µg/mL (≈ 18.2 nM)
- MIC (S. aureus; MSSA, S. aureus MMX 7908, MSSA): 0.015 µg/mL (≈ 9.11 nM)
- MIC (S. aureus; MSSA, read-out: MIC (median), S. aureus MSSA, 4 isolates): 0.023 µg/mL (≈ 14 nM)
- MIC (S. aureus; NRS1 / VISA, S. aureus NRS1, VISA, Mu50): 0.25 µg/mL (≈ 152 nM)
- MIC (S. aureus; NRS2, S. aureus NRS2, hVISA;Mu3): 0.03 µg/mL (≈ 18.2 nM)
- MIC (S. aureus; NRS4 / VISA, S. aureus NRS4, VISA): 0.06 µg/mL (≈ 36.4 nM)
- MIC (S. aureus; NRS13 / VISA, S. aureus NRS13, VISA): 0.12 µg/mL (≈ 72.9 nM)
- MIC (S. aureus; NRS22 / VISA, S. aureus NRS22, VISA): 0.12 µg/mL (≈ 72.9 nM)
- MIC (S. aureus; NRS23, S. aureus NRS23, hVISA): 0.12 µg/mL (≈ 72.9 nM)
- MIC (S. aureus; NRS52 / VISA, S. aureus NRS52, VISA): 0.06 µg/mL (≈ 36.4 nM)
- MIC (S. aureus; VISA, read-out: MIC (median), S. aureus VISA, 5 isolates): 0.12 µg/mL (≈ 72.9 nM)
- MIC (S. aureus; VRSA, read-out: MIC (median), S. aureus VRSA, 12 isolates (JMI Laboratories)): 4 µg/mL (≈ 2430 nM)
- MIC (S. aureus; read-out: MIC (median), S. aureus hVISA, 2 isolates): 0.08 µg/mL (≈ 48.6 nM)
- MIC, fold activity reduction compared to RV40 (S. aureus; VISA): 2 fold
- MIC, fold enhancement in comparison to vancomycin (S. aureus; VISA): 30 fold
- MIC, fold activity reduction compared to RV40 (S. aureus; hVISA): 3 fold
- MIC, fold enhancement in comparison to vancomycin (S. aureus; hVISA): 18 fold
- MIC, fold enhancement compared to telavancin (S. aureus; hVISA and VISA (both strains)): 2 fold
- MIC ([1]; S. constellatus AGS, 1 isolate): 0.008 µg/mL (≈ 4.86 nM)
- MIC ([1]; Streptococcus constellatus, S. constellatus (AGS) MMX 5677, read-out: MIC): 0.008 µg/mL (≈ 4.86 nM)
- MIC ([2]; ATCC27337, P. anaerobius ATCC 27337, read-out: MIC): 0.008 µg/mL (≈ 4.86 nM)
- MIC ([2]; P. anaerobius, 1 isolate, read-out: MIC): 0.008 µg/mL (≈ 4.86 nM)
- MIC:MBC ([3]; S. dysgalactiae, MBC on one organism): 4
- MIC ([3]; S. dysgalactiae MMX 5121, read-out: MIC): 0.008 µg/mL (≈ 4.86 nM)
- MIC ([3]; S. dysgalactiae MMX 5123, read-out: MIC): 0.03 µg/mL (≈ 18.2 nM)
- MIC ([3]; S. dysgalactiae MMX 5124, read-out: MIC): 0.008 µg/mL (≈ 4.86 nM)
- MIC ([3]; S. dysgalactiae, 3 isolates, read-out: MIC (median)): 0.008 µg/mL (≈ 4.86 nM)
- MIC:MBC (Streptococcus anginosus; S. anginosus AGS): >8
- MIC (Streptococcus anginosus; ATCC33397, S. anginosus (AGS) ATCC 33397): 0.015 µg/mL (≈ 9.11 nM)
- MIC (Streptococcus anginosus; S. anginosus AGS, 1 isolate): 0.015 µg/mL (≈ 9.11 nM)
- MIC (Cutibacterium acnes; ATCC6919, P. acnes ATCC 6919, read-out: MIC): 0.008 µg/mL (≈ 4.86 nM)
- MIC (Cutibacterium acnes; ATCC11827, P. acnes ATCC 11827, read-out: MIC): 0.008 µg/mL (≈ 4.86 nM)
- MIC (Cutibacterium acnes; C. acnes, 2 isolates, read-out: MIC (median)): 0.008 µg/mL (≈ 4.86 nM)
- Reduction in MRSA biofilm titer versus control ([4]; 2.5 μg/ml): 1 log10 CFU/ml
- Reduction in MRSA biofilm titer versus control ([4]; doses 1 to 10 μg/ml): approximately 2 log10 CFU/ml
- Concentrations with statistically significant reduction versus control biofilm ([4]; two-way ANOVA, Bonferroni): no statistical significance
- MIC potency, fold less potent than RV40 [5, 7]: ~2 fold
- MIC potency, fold more potent than telavancin [5, 7]: ~2 fold
- MIC potency, fold more potent than vancomycin [5, 7]: approximately 30 fold
- MIC ([5]; Staphylococcus aureus, broth microdilution, read-out: MIC Value, MRSA ATCC BAA 1556): 0.031 µg/mL (≈ 18.8 nM)
- MIC (Streptococcus oralis; S. oralis MGS, 1 isolate): 0.015 µg/mL (≈ 9.11 nM)
- MIC (Streptococcus oralis; Streptococcus oralis, S. oralis (MGS) MMX 5821, read-out: MIC): 0.015 µg/mL (≈ 9.11 nM)
- MIC:MBC (Enterococcus faecium; E. faecium VanA VRE): >8
- MIC:MBC (Enterococcus faecium; E. faecium VanB VRE): >8
- MIC (Enterococcus faecium; E. faecium MMX 4204, VSE): 0.015 µg/mL (≈ 9.11 nM)
- MIC (Enterococcus faecium; E. faecium VSE, 1 isolate): 0.015 µg/mL (≈ 9.11 nM)
- MIC (Enterococcus faecium; VRE, E. faecium MMX 173, VanB VRE): 0.03 µg/mL (≈ 18.2 nM)
- MIC (Enterococcus faecium; VRE, E. faecium MMX 851, VanA VRE): 2 µg/mL (≈ 1210 nM)
- MIC (Enterococcus faecium; VRE, E. faecium VanA VRE, 1 isolate): 2 µg/mL (≈ 1210 nM)
- MIC (Enterococcus faecium; VRE, E. faecium VanB VRE, 1 isolate): 0.03 µg/mL (≈ 18.2 nM)
- MIC (Clostridium. perfringens): 0.008 µg/mL (≈ 4.86 nM)
- MIC (Clostridium. perfringens; ATCC13124): 0.008 µg/mL (≈ 4.86 nM)
- MIC:MBC (Streptococcus agalactiae; S. agalactiae, MBC on one organism): 4
- MIC (Streptococcus agalactiae; ATCC13813, S. agalactiae ATCC 13813, read-out: MIC): 0.03 µg/mL (≈ 18.2 nM)
- MIC (Streptococcus agalactiae; S. agalactiae MMX 4088, read-out: MIC): 0.008 µg/mL (≈ 4.86 nM)
- MIC (Streptococcus agalactiae; S. agalactiae MMX 4115, ermR, read-out: MIC): 0.004 µg/mL (≈ 2.43 nM)
- MIC (Streptococcus agalactiae; S. agalactiae ermR, 1 isolate, read-out: MIC): 0.004 µg/mL (≈ 2.43 nM)
- MIC (Streptococcus agalactiae; S. agalactiae, 2 isolates, read-out: MIC (median)): 0.02 µg/mL (≈ 12.1 nM)
- MIC:MBC ([6]; S. epidermidis MRSE, MBC on one organism): 1
- MIC ([6]; ATCC49134, S. epidermidis ATCC 49134, MSSE, read-out: MIC): 0.015 µg/mL (≈ 9.11 nM)
- MIC ([6]; MRSE, S. epidermidis MMX 762, MRSE, read-out: MIC): 0.03 µg/mL (≈ 18.2 nM)
- MIC ([6]; MRSE, S. epidermidis MMX 5145, MRSE, read-out: MIC): 0.015 µg/mL (≈ 9.11 nM)
- MIC ([6]; MRSE, S. epidermidis MRSE, 2 isolates, read-out: MIC (median)): 0.03 µg/mL (≈ 18.2 nM)
- MIC ([6]; S. epidermidis MSSE, 1 isolate, read-out: MIC): 0.015 µg/mL (≈ 9.11 nM)
